Measured values reported in ChEMBL document CHEMBL1201862, “PubChem BioAssay data set” (2004).
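These data come from cells grown in 96-well plates and exposed to compound for 48 hours at five concentrations. Abbreviation: GI50, concentration required for 50% inhibition of growth.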 Active and inactive are the calls of the source. Cut-off read from the data, not from the text of the source: active = GI50 up to about 1.1 µM and inactive = higher.

How the values were obtained:
Assay in all cases: NCI-60 cell line screen, 48 h
[1] = test system: SN12C
[2] = test system: PC-3
[3] = test system: NCI-H460
[4] = test system: ACHN
[5] = test system: SNB-19
[6] = test system: NCI-H23
[7] = test system: CAKI-1
[8] = test system: SNB-75
[9] = test system: UO-31
[10] = test system: CCRF-CEM
[11] = test system: MCF7
[12] = test system: MDA-MB-435
[13] = test system: TK-10
[14] = test system: A549
[15] = test system: SW-620
[16] = test system: MOLT-4
[17] = test system: SR
[18] = test system: K562
[19] = test system: UACC-62

SMILES | GI50 [1] | GI50 [2] | GI50 [3] | GI50 [4] | GI50 [5] | GI50 [6] | GI50 [7] | GI50 [8] | GI50 [9] | GI50 [10] | GI50 [11] | GI50 [12] | GI50 [13] | GI50 [14] | GI50 [15] | GI50 [16] | GI50 [17] | GI50 [18] | GI50 [19]
CC#CC#C/C=C1/O[C@]2(CCC(OC(C)=O)CO2)[C@@H]2O[C@H]12 (stereo partly drawn) | 20.6 µM (inactive) | 22.1 µM (inactive) | 18.1 µM (inactive) | 24.9 µM (inactive) | 27.7 µM (inactive) | 19.4 µM (inactive) | 25.5 µM (inactive) | 80.5 µM (inactive) | 20.1 µM (inactive) | 14.7 µM (inactive) | 26.5 µM (inactive) | 22.1 µM (inactive) | 39.5 µM (inactive) | 29.6 µM (inactive) | 25.7 µM (inactive) | 17 µM (inactive) | 25.9 µM (inactive) | 29.4 µM (inactive) | 16.6 µM (inactive)
CC1=Nc2ccccc2OC(C)=C1/N=N/c1ccc2[nH]c(C)nc2c1 | 84.7 µM (inactive) | > 100 µM (inactive) | 55.2 µM (inactive) | 43.8 µM (inactive) | > 100 µM (inactive) | > 100 µM (inactive) | 47.1 µM (inactive) | 25.1 µM (inactive) |  | > 100 µM (inactive) | 45.8 µM (inactive) | > 100 µM (inactive) | > 100 µM (inactive) | > 100 µM (inactive) | > 100 µM (inactive) | > 100 µM (inactive) | > 100 µM (inactive) | > 100 µM (inactive) | 83.4 µM (inactive)
CC1(C)OCC(C2OC(On3nnc4ccc(Cl)cc43)C3OC(C)(C)OC23)O1 (stereo not drawn) | > 100 µM (inactive) | > 100 µM (inactive) | > 100 µM (inactive) | > 100 µM (inactive) | > 100 µM (inactive) | > 100 µM (inactive) | > 100 µM (inactive) | 98.9 µM (inactive) |  | > 100 µM (inactive) | > 100 µM (inactive) | > 100 µM (inactive) | > 100 µM (inactive) | > 100 µM (inactive) | > 100 µM (inactive) | > 100 µM (inactive) | > 100 µM (inactive) | 22.4 µM (inactive) | > 100 µM (inactive)
NC1=CN2c3ccccc3N(CC(=O)N3CCOCC3)C2C=C1 (stereo not drawn) | > 100 µM (inactive) | > 100 µM (inactive) | > 100 µM (inactive) | > 100 µM (inactive) | > 100 µM (inactive) | > 100 µM (inactive) | > 100 µM (inactive) | > 100 µM (inactive) | > 100 µM (inactive) | > 100 µM (inactive) | > 100 µM (inactive) | > 100 µM (inactive) | > 100 µM (inactive) | > 100 µM (inactive) | > 100 µM (inactive) | > 100 µM (inactive) | > 100 µM (inactive) | > 100 µM (inactive) | > 100 µM (inactive)
CC(=O)Nc1ccccc1SCCSSCCSc1ccccc1NC(C)=O | 32.4 µM (inactive) | 23.1 µM (inactive) | 25.1 µM (inactive) | 20.6 µM (inactive) | 17.7 µM (inactive) | 30.1 µM (inactive) | 20.8 µM (inactive) | 24.3 µM (inactive) | 17.8 µM (inactive) | 23.6 µM (inactive) | 38.9 µM (inactive) | 19.5 µM (inactive) | 34.1 µM (inactive) | 25.7 µM (inactive) | 39.3 µM (inactive) | 24 µM (inactive) | 34.4 µM (inactive) | 28.6 µM (inactive) | 32 µM (inactive)
O=C(Nc1cccc2nsnc12)c1cc2c(cc1Cl)Sc1nccn1S2(=O)=O | 13.6 µM (inactive) | 1.9 µM (inactive) | 2.4 µM (inactive) | 12.7 µM (inactive) | 12.1 µM (inactive) | 11.2 µM (inactive) | 9.55 µM (inactive) | 8.02 µM (inactive) | 2.07 µM (inactive) | 3.28 µM (inactive) | 1.73 µM (inactive) | 9.62 µM (inactive) | 6.01 µM (inactive) | 17.3 µM (inactive) | 10.5 µM (inactive) | 2.95 µM (inactive) | 2.73 µM (inactive) | 3.98 µM (inactive) | 5.33 µM (inactive)
CC(=O)NC1(C)C(C)C2CC1C(C)C2(C)C (stereo not drawn) | > 100 µM (inactive) | > 100 µM (inactive) | > 100 µM (inactive) | > 100 µM (inactive) | > 100 µM (inactive) | > 100 µM (inactive) | > 100 µM (inactive) | > 100 µM (inactive) | > 100 µM (inactive) | > 100 µM (inactive) | > 100 µM (inactive) | > 100 µM (inactive) | > 100 µM (inactive) | > 100 µM (inactive) | > 100 µM (inactive) | > 100 µM (inactive) | > 100 µM (inactive) | > 100 µM (inactive) | > 100 µM (inactive)
Cc1cccc2c(N)c3cccc(C(=O)NCCN(C)C)c3nc12 | < 0.0167 µM (active) | 0.0643 µM (active) | < 0.01 µM (active) | < 0.0163 µM (active) |  | < 0.0259 µM (active) | < 0.015 µM (active) | 0.074 µM (active) | 0.112 µM (active) | < 0.01 µM (active) | < 0.0168 µM (active) | 0.12 µM (active) | 0.214 µM (active) | < 0.0161 µM (active) | < 0.0225 µM (active) | < 0.01 µM (active) | < 0.01 µM (active) | 0.0162 µM (active) | 0.0649 µM (active)
CC(C)(C)N1Cc2ccccc2/C(=C/Sc2ccccc2)C1=O | 8.17 µM (inactive) | 12.6 µM (inactive) | 14.9 µM (inactive) | 17.9 µM (inactive) | 16 µM (inactive) | 6.84 µM (inactive) | 16.6 µM (inactive) | 16 µM (inactive) | 12.3 µM (inactive) | 5.25 µM (inactive) | 7.19 µM (inactive) | 7.38 µM (inactive) | 19 µM (inactive) | 16.2 µM (inactive) | 7.21 µM (inactive) | 3.21 µM (inactive) | 2.64 µM (inactive) | 5.85 µM (inactive) | 7.69 µM (inactive)
CC1(C)C2CCC1(C)C(OC(=O)/C=C/C(=O)OC1CC3CCC1(C)C3(C)C)C2 (stereo not drawn) | 82.2 µM (inactive) | > 100 µM (inactive) | 67.9 µM (inactive) | > 100 µM (inactive) | 51.4 µM (inactive) | 47.9 µM (inactive) | > 100 µM (inactive) | 0.902 µM (active) | > 100 µM (inactive) | 11.4 µM (inactive) | 19.3 µM (inactive) | 67.3 µM (inactive) | > 100 µM (inactive) | > 100 µM (inactive) | 38.1 µM (inactive) | 16.9 µM (inactive) | 20.1 µM (inactive) | 31.9 µM (inactive) | 31.2 µM (inactive)
N=C1C(O)C2(I)c3ccccc3N3C(=N)C(O)C4c5ccccc5N1C4C32 (stereo not drawn) | 54.3 µM (inactive) | 41.7 µM (inactive) | 37.7 µM (inactive) | 39.4 µM (inactive) | 63.7 µM (inactive) | 35.6 µM (inactive) | 93.5 µM (inactive) | > 100 µM (inactive) | > 100 µM (inactive) | 2.3 µM (inactive) | 19.6 µM (inactive) | 20.4 µM (inactive) | > 100 µM (inactive) | 51.8 µM (inactive) | 52.8 µM (inactive) | 27.5 µM (inactive) | 34.3 µM (inactive) | 26.4 µM (inactive) | > 100 µM (inactive)
Cc1nn(C(=O)c2ccc(Cl)cc2)c2c1C(c1ccccc1)SC(=N)N2 (stereo not drawn) | > 10 µM (inactive) | > 10 µM (inactive) | > 10 µM (inactive) | > 10 µM (inactive) | > 10 µM (inactive) | > 10 µM (inactive) | > 10 µM (inactive) | > 10 µM (inactive) |  | > 10 µM (inactive) | > 10 µM (inactive) | > 10 µM (inactive) | > 10 µM (inactive) | > 10 µM (inactive) | > 10 µM (inactive) | > 10 µM (inactive) | > 10 µM (inactive) | > 10 µM (inactive) | > 10 µM (inactive)
O=C([O-])C(O)C(O)C(=O)O.[K+] (stereo not drawn) [POTASSIUM HYDROGENTARTRATE] | > 100 µM (inactive) | > 100 µM (inactive) | > 100 µM (inactive) | > 100 µM (inactive) | > 100 µM (inactive) |  | > 100 µM (inactive) | > 100 µM (inactive) | > 100 µM (inactive) | > 100 µM (inactive) | > 100 µM (inactive) | > 100 µM (inactive) | > 100 µM (inactive) | > 100 µM (inactive) | > 100 µM (inactive) | > 100 µM (inactive) | > 100 µM (inactive) | > 100 µM (inactive) | > 100 µM (inactive)
O=C1CCC2(CC1CC[S+]([O-])c1ccccc1)OCCO2 (stereo not drawn) |  | > 100 µM (inactive) | > 100 µM (inactive) | > 100 µM (inactive) | > 100 µM (inactive) | > 100 µM (inactive) | > 100 µM (inactive) | > 100 µM (inactive) | > 100 µM (inactive) | > 100 µM (inactive) | > 100 µM (inactive) | > 100 µM (inactive) | > 100 µM (inactive) | > 100 µM (inactive) | > 100 µM (inactive) | > 100 µM (inactive) | > 100 µM (inactive) | > 100 µM (inactive) | > 100 µM (inactive)
O=c1[nH]c(=O)n(COCCO)c2ccsc12 | > 100 µM (inactive) | > 100 µM (inactive) | > 100 µM (inactive) | > 100 µM (inactive) | 32.4 µM (inactive) | > 100 µM (inactive) | > 100 µM (inactive) | > 100 µM (inactive) | > 100 µM (inactive) | > 100 µM (inactive) | > 100 µM (inactive) | > 100 µM (inactive) | > 100 µM (inactive) | > 100 µM (inactive) | > 100 µM (inactive) | > 100 µM (inactive) | > 100 µM (inactive) | > 100 µM (inactive) | 
